This is an account of results in US4690919A, “Benzoxazinorifamycin derivative, process for preparing the same and antibacterial agent containing the same” (Kanegafuchi Kagaku Kogyo Kabushiki Kaisha, priority 1985, dated 1987).

Data set [1] concerns Bacillus subtilis IFO 3134. The data set is described as follows: Antibacterial activity (MIC), standard method of Japan Society of Chemotherapy. In kind it is cell-based. Particulars: IFO3134; Bacillus subtilis IFO 3134; read-out: minimum inhibitory concentration (MIC). From the text:
(§1) The results obtained from the typical compounds are shown in Table 2 as the minimum inhibitory concentration (MIC, μg/ml). […] In Table 2, Test compound No. corresponds to derivative No. in Table 1.

Data set [2] concerns Klebsiella pneumoniae IFO 3512. The data set is described as above. The format is cell-based. The settings on record: IFO3512; Klebsiella pneumoniae IFO 3512; read-out: minimum inhibitory concentration (MIC).
Excerpt: as §1

The test system of data set [3] is Mycobacterium smegmatis ATCC 607. The data set is described as above. The format is cell-based. The settings on record: Mycolicibacterium smegmatis, ATCC607; Mycobacterium smegmatis ATCC 607; read-out: minimum inhibitory concentration (MIC).
Excerpt: as §1

The subject of data set [4] is Micrococcus luteus IFO 12708. The data set is described as above. Particulars: IFO12708; Micrococcus luteus IFO 12708; read-out: minimum inhibitory concentration (MIC). In kind it is cell-based.
Excerpt: as §1

Data set [5] deals with Staphylococcus aureus IFO 12732. The description is as above. The format is cell-based. Particulars: IFO12732; Staphylococcus aureus IFO 12732; read-out: minimum inhibitory concentration (MIC).
Excerpt: as §1

Data set [6] has as its system Escherichia coli IFO 12734. The data set is described as above. The format is cell-based. The settings on record: IFO12734, read-out: minimum inhibitory concentration (MIC).
Excerpt: as §1

Data set [7] can be described thus: Concentration in serum after oral administration to rats. The settings on record: rat, 20 mg/kg.

Molecules are shown by their SMILES. Values after ≈ are worked out from the molar mass of the structure shown.

Turning to `COC(CN(C)c1ccc2nc3c4c5c6c(C)c(O)c4c(=O)c(c-3oc2c1)NC(=O)C(C)=CC=CC(C)C(O)C(C)C(O)C(C)C(OC(C)=O)C(C)C(OC)C=COC(C)(O6)C5=O)OC` (stereo not drawn) [compound 11], the MIC in data set [1] is not above 0.02 µg/mL; in data set [2], 5 µg/mL (≈ 5.54 µM); in data set [3], 2.5 µg/mL (≈ 2.77 µM); in data set [4], not above 0.02 µg/mL; in data set [5], not above 0.02 µg/mL; in data set [6] it was more than 10 µg/mL. The compound further yielded a concentration at 1 h in data set [7] of 2900 ng/mL. Also, the concentration at 3 h in data set [7] was 3400 ng/mL. Further, the concentration at 5 h in data set [7] is 1000 ng/mL.
Regarding `COC1C=COC2(C)Oc3c(C)c(O)c4c(=O)c(c5oc6cc(N7CCCC(C)(C)C7)ccc6nc-5c4c3C2=O)NC(=O)C(C)=CC=CC(C)C(O)C(C)C(O)C(C)C(OC(C)=O)C1C` (stereo not drawn) [compound 27], the MIC in data set [1] is not above 0.02 µg/mL; in data set [2], more than 10 µg/mL; in data set [3], 1.25 µg/mL (≈ 1.4 µM); in data set [4], not above 0.02 µg/mL; in data set [5], not above 0.02 µg/mL; in data set [6], more than 10 µg/mL. Further, the concentration at 1 h in data set [7] worked out at 1800 ng/mL. In data set [7], this compound returned a concentration at 3 h of 6400 ng/mL. For the same compound, in data set [7], the concentration at 5 h amounted to 1700 ng/mL.
As to `CCN(CC)c1ccc2nc3c4c5c6c(C)c(O)c4c(=O)c(c-3oc2c1)NC(=O)C(C)=CC=CC(C)C(O)C(C)C(O)C(C)C(OC(C)=O)C(C)C(OC)C=COC(C)(O6)C5=O` (stereo not drawn) [compound 3], the MIC in data set [1] was not above 0.02 µg/mL; in data set [2], 5 µg/mL (≈ 5.84 µM); in data set [3], 1.25 µg/mL (≈ 1.46 µM); in data set [4] it was not above 0.02 µg/mL; in data set [5] it was not above 0.02 µg/mL; in data set [6] it was 2.5 µg/mL (≈ 2.92 µM). In data set [7], this compound had a concentration at 1 h of 1800 ng/mL. Also, the concentration at 3 h in data set [7] worked out at 3300 ng/mL. The compound also came in with a concentration at 5 h in data set [7] of 1300 ng/mL.
As to `CCOCCN(CCOCC)c1ccc2nc3c4c5c6c(C)c(O)c4c(=O)c(c-3oc2c1)NC(=O)C(C)=CC=CC(C)C(O)C(C)C(O)C(C)C(OC(C)=O)C(C)C(OC)C=COC(C)(O6)C5=O` (stereo not drawn) [compound 9], the MIC in data set [1] is not above 0.02 µg/mL; in data set [2], 10 µg/mL (≈ 10.6 µM); in data set [3], 1.25 µg/mL (≈ 1.32 µM); in data set [4], not above 0.02 µg/mL; in data set [5], not above 0.02 µg/mL; in data set [6] it was 5 µg/mL (≈ 5.3 µM). The compound also had a concentration at 1 h in data set [7] of 2100 ng/mL. In data set [7], this compound returned a concentration at 3 h of 5400 ng/mL. In data set [7], this compound registered a concentration at 5 h of 1800 ng/mL.
